Test results published in publication PMC8749431 (mBio, 2022).

Assays:
[1] = system: pseudotyped VSVs harboring MERS-CoV S (MERS-Spp); assay type: cell-based
[2] = system: pseudotyped VSVs harboring SARS-CoV S (SARS-Spp); experiment: microbe, parasite or virus in culture; assay type: cell-based; details: for EC50: Severe acute respiratory syndrome coronavirus

CCOC(=O)[C@H]1O[C@@H]1C(=O)N[C@@H](CC(C)C)C(=O)NCCC(C)C [E-64d]
inhibition of MERS-Spp entry [1]: reduced | inhibition of SARS-Spp entry [2]: inhibited

Cc1cc(-c2nc(CN3CCC(C(=O)NCCCN4C[C@H](C)C[C@H](C)C4)CC3)co2)ccc1F [Fluoxazolevir, fluoxazolevir]
EC50 [2]: 1.46 µM | EC50 ([2]; Huh-7): 1.75 µM | EC50 ([2]; MA104): 6.49 µM

CCN1CCN(C(c2ccc(Cl)cc2)c2ccc(Cl)cc2)CC1 [Dichlorcyclizine, dichlorcyclizine]
EC50 [2]: 5.76 µM | EC50 ([2]; Huh-7): 0.87 µM | EC50 ([2]; MA104): 9.92 µM

CN1CCN([C@@H](c2ccccc2)c2ccc(Cl)cc2)CC1 [(S)-CCZ, (S)-chlorcyclizine]
EC50 [2]: 4.59 µM | EC50 ([2]; Huh-7): 3.21 µM | EC50 ([2]; MA104): 6.91 µM

CCN(CC)CCCC(C)Nc1ccnc2cc(Cl)ccc12 (stereo not shown) [Chloroquine, chloroquine]
inhibition of MERS-Spp entry [1]: reduced | inhibition of SARS-Spp entry [2]: inhibited
